For 21 compounds, EC50 and Ki results are on record in patent US7169932B2 (priority 2001, dated 2007).

In assay [1] the test system is HIV-1. As to the kind of experiment: Cytopathic Effect (CPE) Inhibition Assay (XTT dye reduction). In kind it is cell-based. The protocol:
T-cell lines, CEM-SS, and MT-2, and viruses HIV-1 RF and HIV-1 NL4–3 (pNL4–3) were obtained from the National Institutes of Health (AIDS Research and Reference Reagent Program, Bethesda, Md.).
The ability of compounds to protect cells against HIV infection was measured by the […] dye reduction method, essentially as described (See Pauwels, R. Balzarini, J. Baba, M. Snoeck, R. Schols, D. Herdewijn, P. Desmyter, J. and De Clercq, E. 1988, “Rapid and automated tetrazolium-based colorimetric assay for the detection of anti-HIV compounds,”. J Virol Methods., 20: 309–321 and Weislow, O. S. Kiser, R. Fine, D. L. Bader, J. Shoemaker, R. H. and Boyd, M. R. 1989. “New soluble-formazan assay for HIV-1 cytopathic effects: application to high-flux screening of synthetic and natural products for AIDS-antiviral activity”. J. Natl. Cancer Inst. 81:577–586). Subject cells were infected with test virus at an moi of 0.025 to 0.819 or mock infected with medium only and added at 2×10^4 cells per well into 96 well plates containing half-log dilutions of test compounds. Six days later, 50 μl of XTT (1 mg/ml XTT tetrazolium, […] phenazine methosulfate) was added to the wells and the plate was reincubated for four hours. Viability, as determined by the amount of XTT formazan produced, was quantified spectrophotometrically by absorbance at 450 nm. Data from CPE assays were expressed as the percent of formazan produced in compound-treated cells compared to formazan produced in wells of uninfected, compound-free cells. The fifty percent effective concentration (EC50) was calculated as the concentration of compound that effected an increase in the percentage of formazan production in infected, compound-treated cells to 50% of that produced by uninfected, compound-free cells. The 50% cytotoxicity concentration (CC50) was calculated as the concentration of compound that decreased the percentage of formazan produced in uninfected, compound-treated cells to 50% of that produced in uninfected, compound-free cells. The therapeutic index was calculated by dividing the cytotoxicity (CC50) by the antiviral activity (EC50).
(Protection from cytopathic effect is a common read-out in antiviral testing.)

Assay [2] has as its target T1, HIV-1 protease (Q7S) (Human immunodeficiency virus type 1 group M subtype B, UniProt P04585, Q495S).
T1 construct: made in house
Put plainly: HIV-1 Protease RET Assay. Type of assay: biochemical. The procedure:
Ki's for the inhibitors of HIV-1 protease were determined using a resonance energy transfer (RET) assay. […] This enzyme is first partially purified as inclusion bodies from cell lysate. It is then solublized in 8M urea and passed through a Q-Sepharose column (Pharmacia) for further purification. To refold this protein, samples containing Q7S is dialyzed into 50 mM sodium phosphate pH 7.0, 50 mM NaCl, 10 mM DTT, and 10% glycerol.
The commercially available peptide substrate (Molecular Probes Cat. # H-2930) RE(EDANS)SQNYPIVQK(DABCYL)R is used to assess activity and Ki's. This peptide is cleaved quantitatively by HIV-1 Pr at the Tyr-Pro bond. The EDANS fluorophore absorbs at 340 nm and emits at 490 nm. The reaction is carried out in a 96 well plate in a total volume of 100 μL and is run for 12 minutes at 37 C under steady-state conditions with 5 μM substrate and 2 nM active dimer enzyme concentration. The literature value Km for this substrate and enzyme is 103+/−8 μM (See Matayoshi, et al., “Novel Fluorogenic Substrates for Assaying Retroviral Proteases by Resonance Energy Transfer,” Science 247, 954 (1990)). The buffer for this reaction is 0.1M sodium acetate pH 4.8, 1M NaCl, 1 mM EDTA, 5 mM dithiothreitol, 10% dimethyl sulfoxide and 1 mg/ml bovine serum albumin. Inhibition curves are fit using the Morrison tight binding equation.

Setting [3] is: Human immunodeficiency virus 1, 144 h, read-out: Ave CPE EC50 (mM).
The mark [4] stands for this setting: Ave. Ki (nM), RET assay, Q7S enzyme, pH 4.8, 37 C.
Setting [5] is: Ki, table of drawn compounds, unit inferred.

Structures are written as SMILES. Where two headings read alike, the source gives them in different places.

As for `Cc1ccccc1CNC(=O)[C@H]1N(C(=O)[C@@H](O)[C@H](Cc2ccccc2)NC(=O)c2sc(N)nc2C)CSC1(C)C` [Example B15, 2-Amino-4-methyl-thiazole-5-carboxylic acid {(S)-1-benzyl-3-[5,5-dimethyl-4-(2-methyl-benzylcarbamoyl)-thiazolidin-3-yl]-2-hydroxy-3-oxo-propyl}-amide], the half-maximal effective concentration (EC50) in assay [1] (setting [3]) amounted to 1090 nM. The affinity in assay [2] (setting [4]), expressed as Ki, was 2 nM.
On to `Cc1ccccc1CNC(=O)[C@H]1N(C(=O)[C@@H](O)[C@H](Cc2ccccc2)NC(=O)c2cc(C(C)(C)C)on2)CSC1(C)C`, for which the 50% effective concentration (EC50) in assay [1] (Human immunodeficiency virus 1) was at least 10000 nM. Moreover, in assay [2] (setting [5]), the Ki amounted to 214 nM.
Take `COc1ccc(C(=O)NC(Cc2ccccc2)C(O)C(=O)N2CSC(C)(C)[C@H]2C(=O)NCc2ccccc2C)c(C)c1` (stereo in doubt) [Example B29, 3-[2-Hydroxy-3-(4-methoxy-2-methyl-benzoylamino)-4-phenyl-butyryl]-5,5-dimethyl-thiazolidine-4-carboxylic acid 2-methyl-benzylamide]: the EC50 in assay [1] (setting [3]) stood at 1260 nM. In assay [2] (setting [4]), this compound had a Ki of 0.12 nM.
Turning to `Cc1ccccc1CNC(=O)[C@@H]1C[C@H](F)CN1C(=O)[C@@H](O)[C@H](Cc1ccccc1)NC(=O)c1cccc(O)c1C` [Example C3, (2S,4S)-4-Fluoro-1-[(2S,3S)-2-hydroxy-3-(3-hydroxy-2-methyl-benzoylamino)-4-phenyl-butyryl]-pyrrolidine-2-carboxylic acid 2-methyl-benzylamide], the EC50 in assay [1] (setting [3]) was 500 nM. In assay [2] (setting [4]), this compound yielded a Ki of 1.3 nM.
In turn, `Cc1c(O)cccc1C(=O)N[C@@H](Cc1ccccc1)[C@H](O)C(=O)N1CSC(C)(C)[C@H]1C(=O)c1ccccc1` displayed an EC50 in assay [1] (Human immunodeficiency virus 1) of 1220 nM. The same compound showed a Ki in assay [2] (setting [5]) of 2.5 nM.
Regarding `Cc1ccccc1CNC(=O)[C@H]1N(C(=O)[C@@H](O)[C@H](Cc2ccccc2)NC(=O)c2c(C)noc2C)CSC1(C)C` [Example B10, 3,5-Dimethyl-isoxazole-4-carboxylic acid {(1S,2S)-1-benzyl-3-[(R)-5,5-dimethyl-4-(2-methyl-benzylcarbamoyl)-thiazolidin-3-yl]-2-hydroxy-3-oxo-propyl}-amide], in assay [1] (setting [3]), the EC50 is 1100 nM. Also, the inhibition constant (Ki) in assay [2] (setting [4]) was below 0.1 nM.
With `COc1ccc(CNC(=O)[C@H]2N(C(=O)[C@@H](O)[C@H](Cc3ccccc3)NC(=O)c3cccc(O)c3C)CSC2(C)C)cc1` [Example A6, (R)-3-((2S,3S)-2-Hydroxy-3-{[1-(3-hydroxy-2-methyl-phenyl)-methanoyl]-amino}-4-phenyl-butanoyl)-5,5-dimethyl-thiazolidine-4-carboxylic acid 4-methoxy-benzylamide], the half-maximal effective concentration (EC50) in assay [1] (setting [3]) worked out at 36 nM. This compound displayed a Ki in assay [2] (setting [4]) of 0.22 nM.
`Cc1ncc(C(=O)N[C@@H](Cc2ccccc2)[C@H](O)C(=O)N2CSC(C)(C)[C@H]2C(=O)NCc2ccccc2C)c(=O)[nH]1`: the EC50 in assay [1] (Human immunodeficiency virus 1) is at least 10000 nM. In assay [2] (setting [5]), the affinity, expressed as Ki, was 209 nM.
Turning to `CCCOc1cccc(CNC(=O)[C@H]2N(C(=O)[C@@H](O)[C@H](Cc3ccccc3)NC(=O)c3cccc(O)c3C)CSC2(C)C)c1` [Example A43, (R)-3-((2S,3S)-2-Hydroxy-3-{[1-(3-hydroxy-2-methyl-phenyl)-methanoyl]-amino}-4-phenyl-butanoyl)-5,5-dimethyl-thiazolidine-4-carboxylic acid 3-propoxy-benzylamide], the EC50 in assay [1] (setting [3]) amounted to 561 nM. The compound also displayed a Ki in assay [2] (setting [4]) of 0.35 nM.
`Cc1ccccc1CNC(=O)[C@H]1N(C(=O)[C@@H](O)[C@H](Cc2ccccc2)NC(=O)c2cccc(F)c2C)COC1(C)C` [Example C11, (S)-3-((2S,3S)-3-{[1-(3-Fluoro-2-methyl-phenyl)-methanoyl]-amino}-2-hydroxy-4-phenyl-butanoyl)-5,5-dimethyl-oxazolidine-4-carboxylic acid 2-methyl-benzylamide]: the EC50 in assay [1] (setting [3]) amounted to 1560 nM. The compound further came in with a Ki in assay [2] (setting [4]) of 1.1 nM.
For `Cc1cc(Cl)ccc1CNC(=O)[C@H]1N(C(=O)[C@@H](O)[C@H](Cc2ccccc2)NC(=O)c2cccc(O)c2C)CSC1(C)C`, the EC50 in assay [1] (Human immunodeficiency virus 1) came out at 207 nM. Moreover, in assay [2] (setting [5]), affinity was put at a Ki of 0.26 nM.
On to `C#CCN(C)C(=O)[C@H]1N(C(=O)[C@@H](O)[C@H](Cc2ccccc2)NC(=O)c2cccc(O)c2C)CSC1(C)C` [Example A27, (R)-3-((2S,3S)-2-Hydroxy-3-{[1-(3-hydroxy-2-methyl-phenyl)-methanoyl]-amino}-4-phenyl-butanoyl)-5,5-dimethyl-thiazolidine-4-carboxylic acid methyl-prop-2-ynyl-amide], for which the EC50 in assay [1] (setting [3]) came to 72 nM. In assay [2] (setting [4]), this compound showed an inhibition constant (Ki) of 0.62 nM.
Turning to `Cc1ccc(CNC(=O)[C@H]2N(C(=O)[C@@H](O)[C@H](Cc3ccccc3)NC(=O)c3cccc(O)c3C)CSC2(C)C)cc1`, the EC50 in assay [1] (Human immunodeficiency virus 1) amounted to 141 nM. Besides, in assay [2] (setting [5]), the Ki is 0.73 nM.
On to `Cc1c(O)cccc1C(=O)N[C@@H](Cc1ccccc1)[C@H](O)C(=O)N1CSC(C)(C)[C@H]1C(=O)NCc1ccc(C(F)(F)F)cc1` [Example A9, (R)-3-((2S,3S)-2-Hydroxy-3-{[1-(3-hydroxy-2-methyl-phenyl)-methanoyl]-amino}-4-phenyl-butanoyl)-5,5-dimethyl-thiazolidine-4-carboxylic acid 4-trifluoromethyl-benzylamide], for which the EC50 in assay [1] (setting [3]) worked out at 565 nM. Further, the Ki in assay [2] (setting [4]) is 4 nM.
On to `Cc1ccccc1CNC(=O)[C@H]1N(C(=O)[C@@H](O)[C@H](Cc2ccccc2)NC(=O)c2csc(N)n2)CSC1(C)C`, for which, in assay [1] (Human immunodeficiency virus 1), the EC50 is 1380 nM. The compound further returned an inhibition constant Ki in assay [2] (setting [5]) of 2.3 nM.
Taken in the same sequence, the figures for `Cc1c(O)cccc1C(=O)N[C@@H](Cc1ccccc1)[C@H](O)C(=O)N1CSC(C)(C)[C@H]1C(=O)NCc1cc(F)cc(F)c1` were 144 nM and 0.36 nM.
On to `Cc1c(O)cccc1C(=O)N[C@@H](Cc1ccccc1)[C@H](O)C(=O)N1CSC(C)(C)[C@H]1C(=O)NCc1cc(F)ccc1C(F)(F)F` [Example A5, 3-(2-Hydroxy-3-{[1-(3-hydroxy-2-methyl-phenyl)-methyanoyl]amino}-4-phenyl-butanoyl)-5,5-dimethyl-thiazolidine-4-carboxlic acid fluoro trifluoromethyl-benzylamide], for which the EC50 in assay [1] (setting [3]) is 433 nM. Besides, the affinity in assay [2] (setting [4]), expressed as Ki, was 2 nM.
In the case of `Cc1c(O)cccc1C(=O)N[C@@H](Cc1ccccc1)[C@H](O)C(=O)N1CSC(C)(C)[C@H]1C(=O)NCCc1ccccc1` [Example A19, (R)-3-((2S,3S)-2-Hydroxy-3-{[1-(3-hydroxy-2-methyl-phenyl)-methanoyl]-amino}-4-phenyl-butanoyl)-5,5-dimethyl-thiazolidine-4-carboxylic acid phenethyl-amide], the EC50 in assay [1] (setting [3]) turned out to be 442 nM. The Ki in assay [2] (setting [4]) was determined as 10 nM.
As to `Cc1cc(C(=O)N[C@@H](Cc2ccccc2)[C@H](O)C(=O)N2CSC(C)(C)[C@H]2C(=O)NCc2ccc(Cl)cc2C)no1`, the EC50 in assay [1] (Human immunodeficiency virus 1) amounted to 4130 nM. Affinity in assay [2] (setting [5]) was put at a Ki of 28 nM.
As to `C#CCNC(=O)[C@H]1N(C(=O)[C@@H](O)[C@H](Cc2ccccc2)NC(=O)c2ccc(C)c(O)c2C)CSC1(C)C` [Example B21, 3-(2-Hydroxy-3-{[1-(3-hydroxy-2,4-dimethyl-phenyl)-methyanoyl]-amino}-4-phenyl-butznoyl)-5,5-dimethyl-thiazolidine-4-carboxylic acid prop-2-ynylamide], in assay [1] (setting [3]), the EC50 worked out at 598 nM. Further, the affinity in assay [2] (setting [4]), expressed as Ki, was 4.6 nM.
Taken in the same sequence, the figures for `Cc1c(O)cccc1C(=O)N[C@@H](Cc1ccccc1)[C@H](O)C(=O)N1CSC(C)(C)[C@H]1C(=O)NCc1ccc(C(F)(F)F)c(F)c1` [Example A11] were 930 nM and 19 nM.

In general, EC50 refers to the concentration that produces a half-maximal response. As a reminder, the Ki is a measure of affinity in units of concentration, obtained from inhibition or displacement. Higher therefore signals lower affinity.
